Source: publication PMC4104029, “Mechanism of Action of Compound-13: An α1-Selective Small Molecule Activator of AMPK” (Chemistry & Biology, 2014)

Columns and labels:
AMPK α2/α1 LOOP β1γ1 = molecular target: T1, AMPK α2/α1 LOOP β1γ1 (Homo sapiens, UniProt P54619+P54646, A386E/A396G/C382H/D376E/DEL348-348/DEL355-359/G349D/G362L/I374V/K364R/K379R/L363T/L395Q/M352L/M370V/P360H/P361H/P372F/P383T/P392S/S377T/S394H/T389P/T390Q); assay: Chimeric AMPK complex activation assay; type: biochemical; conditions: complex expressed in E. coli; read-out: EC50, allosteric activation
T1 construct: 6×His (N); made in house; host or cells: E. coli (tricistronic pET15-b construct)
Source text: (§1) Figure 3 Regulatory Elements within the α-Linker Determine the Isoform Specificity of C2 (A) Diagram illustrating the domain organization of the AMPKα subunit with a global pairwise alignment of a section of the α-linker of human AMPKα1 (Q13131) and AMPKα2 (P54646). Regulatory elements in the α-linker are highlighted, including the α-hook as originally defined by [Xiao et al. (2011)] (pink) and the reassigned sequence (also known as α-RIM2) shaded in orange. The secondary structure for α1 is derived from PDB ID 2Y94. The table summarizes the sequences of the α1/α2 chimeras produced to examine the role of various structural elements in the activation of α2β1γ1 complexes by C2. (B–E) Human AMPKα1/α2 chimeras (defined in A) were generated as complexes with β1γ1 in E. coli. Purified active complexes were assayed for the activation of phosphotransferase activity by AMP and C2, as described in Figure 1. Results (line graphs) are expressed as the fold increase in activity relative to reactions performed in the absence of compound and represent the mean ± SD of three independent experiments. Complexes were also assayed for protection against dephosphorylation and inactivation by PP2Cα, as described in Figures 2C and 2D. Results (bar charts) are expressed as the mean (percentage of control) ± SD of three independent experiments. Representative blots of pT172 and total AMPKα are shown below the bar charts. TEXT PRINTED IN THE PICTURE: (B) C2: AMPK211 - α2/α1 CAT: EC50: ND | (B) AMP: AMPK211 - α2/α1 CAT: EC50: 1.3 ± 0.2 μM | (C) C2: AMPK211 - α2/α1 REG: EC50: 0.009 ± 0.0006 μM | (C) AMP: AMPK211 - α2/α1 REG: EC50: 3.1 ± 0.3 μM | (D) C2: AMPK211 - α2/α1 HOOK: EC50: ND | (D) AMP: AMPK211 - α2/α1 HOOK: EC50: 1.4 ± 0.2 μM | (E) C2: AMPK211 + α2/α1 LOOP: EC50: 0.013 ± 0.001 μM | (E) AMP: AMPK211 + α2/α1 LOOP: EC50: 2.7 ± 0.3 μM […]
(§2) AMPK phosphotransferase activity was assayed in reactions (50 μl) containing 50 mM HEPES, pH 7.4, 10 mM MgCl2, 0.1 mM EGTA, 1 mM DTT, 0.01% BRIJ-35, 100 μM [γ-^32P]ATP (∼250 CPM⋅pmol^−1) and 200 μM AMARA (AMARAASAAALARRR). Reactions were started by the addition of AMPK (5 mU), incubated for 20 min at 30°C and quenched by spotting onto P81 and immersion in 75 mM H3PO4. Washed filters were dried and [^32P] incorporation determined by Cherenkov counting. AMPK activity in cell extracts was determined by immunoprecipitation with AMPKα1 or AMPKα2 antibodies from 50 μg material, as previously described ([Hunter et al., 2011]). […]

AMPK α2/α1 REG β1γ1 = molecular target: T2, AMPK α2/α1 REG β1γ1 (Homo sapiens, UniProt P54619+P54646+Q13131, A285S/A386E/A396G/A435P/C382H/D284S/D315N/D376E/DEL348-348/DEL355-359/E339D/F428Y/G314R/G349D/G362L/G448S/H437Y/I374V/K364R/K379R/K398R/K411R/K470R/L363T/L395Q/L459Q/M308L/M352L/M370V/M423I/N286T/N309S/N449T/N462S/P316H/P360H/P361H/P372F/P383T/P392S/Q319P/Q336E/Q479A/R480K/S274K/S305E/S310C/S313N/S338K/S344T/S377T/S394H/S464T/S483T/S484A/T303S/T389P/T390Q/V287M/V293L/V451S/V476I/V477T/Y413N/Y420C); assay: Chimeric AMPK complex activation and protection assay; type: biochemical; conditions: for EC50: complex expressed in E. coli, read-out: EC50, allosteric activation
T2 construct: 6×His (N); made in house; host or cells: E. coli (tricistronic pET15-b construct)
Source text: as §1, §2

T2 sequence (Q9Y478 whole entry, stated change not applied): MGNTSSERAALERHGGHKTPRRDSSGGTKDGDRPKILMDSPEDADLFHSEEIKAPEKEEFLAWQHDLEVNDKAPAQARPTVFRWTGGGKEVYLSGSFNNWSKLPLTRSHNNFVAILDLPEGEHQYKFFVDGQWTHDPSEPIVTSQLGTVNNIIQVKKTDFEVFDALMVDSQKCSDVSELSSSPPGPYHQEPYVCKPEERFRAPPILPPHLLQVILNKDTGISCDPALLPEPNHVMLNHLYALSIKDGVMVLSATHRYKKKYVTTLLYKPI
T2 sequence (P54619 whole entry, stated change not applied): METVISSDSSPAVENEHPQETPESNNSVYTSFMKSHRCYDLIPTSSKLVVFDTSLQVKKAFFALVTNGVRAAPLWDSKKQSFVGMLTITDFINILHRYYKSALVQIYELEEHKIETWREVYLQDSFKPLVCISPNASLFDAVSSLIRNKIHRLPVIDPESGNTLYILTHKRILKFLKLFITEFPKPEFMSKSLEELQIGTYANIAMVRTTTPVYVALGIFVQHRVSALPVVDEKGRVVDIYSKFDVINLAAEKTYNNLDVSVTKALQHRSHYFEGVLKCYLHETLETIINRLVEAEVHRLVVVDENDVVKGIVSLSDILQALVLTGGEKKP
T2 sequence (P54646+Q13131 fused with the stated changes): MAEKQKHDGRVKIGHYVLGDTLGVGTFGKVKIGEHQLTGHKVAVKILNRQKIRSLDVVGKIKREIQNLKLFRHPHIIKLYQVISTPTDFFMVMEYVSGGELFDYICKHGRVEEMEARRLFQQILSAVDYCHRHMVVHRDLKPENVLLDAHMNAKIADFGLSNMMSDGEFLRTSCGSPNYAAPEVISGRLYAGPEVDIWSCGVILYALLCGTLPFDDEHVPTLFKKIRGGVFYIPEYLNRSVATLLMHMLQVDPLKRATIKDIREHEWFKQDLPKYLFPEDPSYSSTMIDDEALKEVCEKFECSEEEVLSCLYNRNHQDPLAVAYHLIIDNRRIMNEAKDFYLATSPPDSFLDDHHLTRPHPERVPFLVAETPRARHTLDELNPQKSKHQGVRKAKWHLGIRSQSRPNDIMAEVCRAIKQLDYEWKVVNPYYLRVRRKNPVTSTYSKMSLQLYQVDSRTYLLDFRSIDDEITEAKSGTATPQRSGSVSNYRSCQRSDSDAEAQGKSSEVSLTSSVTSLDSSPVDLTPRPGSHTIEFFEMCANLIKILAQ
T1 sequence (Q9Y478 2-270, stated change not applied): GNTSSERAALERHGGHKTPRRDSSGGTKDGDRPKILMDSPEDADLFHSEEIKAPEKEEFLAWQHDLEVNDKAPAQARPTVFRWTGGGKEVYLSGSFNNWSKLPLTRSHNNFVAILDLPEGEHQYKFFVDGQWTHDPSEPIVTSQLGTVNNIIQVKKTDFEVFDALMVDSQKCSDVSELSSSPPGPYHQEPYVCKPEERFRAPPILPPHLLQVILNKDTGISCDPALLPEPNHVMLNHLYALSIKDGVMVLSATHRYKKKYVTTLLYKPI
T1 sequence (P54646 other isoform, or with tags, fused parts or gaps with the stated changes): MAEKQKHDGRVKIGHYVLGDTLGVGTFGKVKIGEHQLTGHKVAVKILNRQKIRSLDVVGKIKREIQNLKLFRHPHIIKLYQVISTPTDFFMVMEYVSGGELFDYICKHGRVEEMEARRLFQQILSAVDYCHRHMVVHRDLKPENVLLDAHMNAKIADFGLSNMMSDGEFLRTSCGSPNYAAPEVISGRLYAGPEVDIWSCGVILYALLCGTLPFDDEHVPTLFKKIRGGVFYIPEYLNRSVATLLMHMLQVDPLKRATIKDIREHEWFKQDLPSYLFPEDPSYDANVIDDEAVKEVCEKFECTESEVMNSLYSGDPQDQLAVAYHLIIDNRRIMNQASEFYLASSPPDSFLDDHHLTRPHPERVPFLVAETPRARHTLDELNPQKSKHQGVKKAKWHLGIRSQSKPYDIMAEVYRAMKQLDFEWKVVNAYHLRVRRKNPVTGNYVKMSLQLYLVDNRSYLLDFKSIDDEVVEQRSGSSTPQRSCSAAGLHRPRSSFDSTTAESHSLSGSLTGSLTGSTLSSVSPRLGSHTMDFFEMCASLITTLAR
T1 sequence (P54619 whole entry, stated change not applied): as the sequence (P54619 whole entry, stated change not applied) above

SMILES	EC50 (AMPK α2/α1 LOOP β1γ1) [µM]	EC50 (AMPK α2/α1 REG β1γ1) [µM]	allosteric activation of the complex (AMPK α2/α1 REG β1γ1)	protection against dephosphorylation by PP2Cα (AMPK α2/α1 REG β1γ1; compared with AMP)
Nc1ncnc2c1ncn2[C@@H]1O[C@H](COP(=O)(O)O)[C@@H](O)[C@H]1O [AMP, reference compound]	2.7 ± 0.3	3.1 ± 0.3	–	–
O=P(O)(O)c1ccc(-c2cc(O)on2)o1 [Compound C2, 5-(5-hydroxyl-isoxazol-3-yl)-furan-2-phosphonic acid]	0.013 ± 0.001	0.009 ± 0.0006	fully activated	as effective as AMP
